Laboratory results: US20220324835A1 (Nurix Therapeutics, Inc., priority 2018, published 2022)

What was measured:
Cbl-b [1] = target: T1, Cbl-b (Homo sapiens, UniProt Q13191); experiment: Cbl-b inhibition assay (Cbl-b activity assay, FRET, Biological Example 1; 100 mM NaCl, 60 nM Src kinase); type: biochemical; settings: upper bound stated in text lists; read-out: IC50 values in the Cbl-b inhibition assay of Biological Example 1
Procedure, shortened: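 N-terminally biotinylated Avi-tagged Cbl-b was mixed with Src kinase, UbcH5B covalently conjugated to Bodipy-fluorescein ubiquitin, and streptavidin-terbium. Src phosphorylation lets Cbl-b bind UbcH5B-Ub, giving terbium-fluorescein FRET; inhibition is read as loss of FRET signal.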

Cbl-b [2] = target: T1, Cbl-b; experiment: Cbl-b activity assay (Cbl-b inhibition assay), TR-FRET of Cbl-b interaction with UbcH5B-Ub; type: biochemical; settings: assay buffer with 100 mM NaCl, 60 nM Src kinase; read-out: Cbl-b activity IC50
Procedure, shortened: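 Compound-treated Cbl-b was incubated 1.5 h with Src kinase (60 nM final; 30 nM for asterisked values, which also used 50 mM instead of 100 mM NaCl), 1 mM ATP and 5 mM MgCl2. Binding to fluorescent Ub-loaded UbcH5B (C85K mutant) was then read by TR-FRET after 1 h more.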

T-cell [3] = experiment: CD25 cell surface staining on T-cells co-stimulated with anti-CD3 and anti-CD28 antibody (Biological Example 2); type: cell-based, human; settings: Homo sapiens, T-cell, primary human total T-cells, baseline = anti-CD3/anti-CD28 stimulated cells without inhibitor, read-out: CD25 staining, Anti-CD3/Anti-CD28 stimulation, fold change over baseline; for fold induction at 0.3 µM: 0.3 μM compound; for fold induction at 1 µM: 1 μM compound; for fold induction at 4 µM: 4 μM compound
Procedure, shortened: (§1)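 Values are fold-change over baseline: readings (IL-2 release, CD25 staining) from inhibitor-treated T-cells divided against untreated cells […]. No detailed procedure stated.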

T-cell [4] = experiment: IL-2 secretion from T-cells co-stimulated with anti-CD3 and anti-CD28 antibody (Biological Example 2); type: cell-based, human; settings: Homo sapiens, T-cell, primary human total T-cells, baseline = anti-CD3/anti-CD28 stimulated cells without inhibitor, read-out: IL-2 secretion, Anti-CD3/Anti-CD28 stimulation, fold change over baseline; for fold induction at 0.3 µM: 0.3 μM compound; for fold induction at 1 µM: 1 μM compound; for fold induction at 4 µM: 4 μM compound
Procedure, shortened: as §1

T-cell [5] = experiment: CD25 cell surface staining on T-cells stimulated with anti-CD3 antibody alone (Biological Example 2); type: cell-based; settings: primary human total T-cells, baseline = anti-CD3/anti-CD28 stimulated cells without inhibitor, read-out: CD25 staining, Anti-CD3 stimulation, fold change over baseline; for fold induction at 1 µM: 1 μM compound; for fold induction at 8 µM: 8 μM compound
T-cell [6] = experiment: IL-2 secretion from T-cells stimulated with anti-CD3 antibody alone (Biological Example 2); type: cell-based; settings: primary human total T-cells, read-out: IL-2 secretion, Anti-CD3 stimulation, fold change over baseline; for fold induction at 1 µM: 1 μM compound; for fold induction at 8 µM: 8 μM compound

T1 sequence (Q13191 36-427): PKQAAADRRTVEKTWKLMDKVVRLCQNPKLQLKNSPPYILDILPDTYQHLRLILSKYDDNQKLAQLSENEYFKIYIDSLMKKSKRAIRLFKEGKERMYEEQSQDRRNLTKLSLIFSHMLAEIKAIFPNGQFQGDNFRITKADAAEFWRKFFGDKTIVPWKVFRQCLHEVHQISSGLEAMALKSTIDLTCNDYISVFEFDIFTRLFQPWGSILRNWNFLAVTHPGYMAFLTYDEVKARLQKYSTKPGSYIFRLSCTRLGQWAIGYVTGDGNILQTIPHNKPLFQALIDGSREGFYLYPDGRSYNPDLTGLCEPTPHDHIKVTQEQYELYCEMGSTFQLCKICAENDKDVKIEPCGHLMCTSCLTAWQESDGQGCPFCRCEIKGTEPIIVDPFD

SMILES | IC50 (Cbl-b [1]) [nM] | IC50 (Cbl-b [2]) [nM] | fold induction at 0.3 µM (T-cell [3]) | fold induction at 1 µM (T-cell [3]) | fold induction at 0.3 µM (T-cell [4]) | fold induction at 1 µM (T-cell [4]) | fold induction at 1 µM (T-cell [5]) | fold induction at 1 µM (T-cell [6]) | fold induction at 4 µM (T-cell [3]) | fold induction at 4 µM (T-cell [4]) | fold induction at 8 µM (T-cell [5]) | fold induction at 8 µM (T-cell [6])
Cn1cnnc1CC1(c2cccc(N3Cc4c(cc(OC5CNC5)cc4C(F)(F)F)C3=O)c2)COC1 [Compound 514, 6-(azetidin-3-yloxy)-2-(3-{3-[(4-methyl-1,2,4-triazol-3-yl)methyl]oxetan-3-yl}phenyl)-4-(trifluoromethyl)-3H-isoindol-1-one] | ≤ 100 | < 100 | 1.01 to 1.3 | 1.01 to 1.3 | 1.01 to 2.5 | 1.01 to 2.5 | 0.801 to 1 | 0.051 to 0.1 | – | – | – | –
C[C@H](c1cc2c(c(C(F)(F)F)c1)CN(c1cccc([C@@](C)(F)C(F)(F)c3nncn3C)c1)C2=O)N1CC[C@H](F)C1 [Compound 459, 6-((R)-1-((S)-3-fluoropyrrolidin-1-yl)ethyl)-2-(3-((R)-1,1,2-trifluoro-1-(4-methyl-4H-1,2,4-triazol-3-yl)propan-2-yl)phenyl)-4-(trifluoromethyl)isoindolin-1-one] | ≤ 100 | < 100 | 1.01 to 1.3 | 1.31 to 1.5 | 2.51 to 5 | > 7.5 | > 1 | > 0.201 | 1.51 to 1.75 | > 7.5 | > 1 | > 0.201
Cn1cnnc1CC1(c2cccc(N3Cc4c(cc(CN5CCCC6CC65)cc4C(F)(F)F)C3=O)c2)COC1 (stereo not drawn) [Compound 490, 6-((2-azabicyclo[4.1.0]heptan-2-yl)methyl)-2-(3-(3-((4-methyl-4H-1,2,4-triazol-3-yl)methyl)oxetan-3-yl)phenyl)-4-(trifluoromethyl)isoindolin-1-one] | ≤ 100 | < 100 | 1.01 to 1.3 | 1.01 to 1.3 | > 7.5 | > 7.5 | > 1 | > 0.201 | – | – | – | –
Cn1cnnc1C(F)(F)[C@](C)(F)c1cccc(N2Cc3c(cc(CN4CC(C#N)C4)cc3C(F)(F)F)C2=O)c1 [Compound 456, (R)-1-((3-oxo-2-(3-(1,1,2-trifluoro-1-(4-methyl-4H-1,2,4-triazol-3-yl)propan-2-yl)phenyl)-7-(trifluoromethyl)isoindolin-5-yl)methyl)azetidine-3-carbonitrile] | ≤ 300 | 100 to 300 | 1.01 to 1.3 | 1.01 to 1.3 | 1.01 to 2.5 | 2.51 to 5 | 0.801 to 1 | 0.051 to 0.1 | 1.01 to 1.3 | 5 to 7.5 | > 1 | 0.101 to 0.15
C[C@H](Cc1nncn1C)c1cccc(N2Cc3c(cc([C@H](C)N4CC[C@H](F)C4)cc3C(F)(F)F)C2=O)c1 [Compound 404, 6-((S)-1-((S)-3-fluoropyrrolidin-1-yl)ethyl)-2-(3-((R)-1-(4-methyl-4H-1,2,4-triazol-3-yl)propan-2-yl)phenyl)-4-(trifluoromethyl)isoindolin-1-one] | ≤ 100 | < 100 | 1.31 to 1.5 | 1.31 to 1.5 | > 7.5 | > 7.5 | > 1 | > 0.201 | 1.31 to 1.5 | > 7.5 | > 1 | > 0.201
Cn1cnnc1CC1(c2cccc(N3Cc4c(cc(CN5CC(C)(F)C5)cc4C(F)(F)F)C3=O)c2)COC1 [Compound 424, 6-((3-fluoro-3-methylazetidin-1-yl)methyl)-2-(3-(3-((4-methyl-4H-1,2,4-triazol-3-yl)methyl)oxetan-3-yl)phenyl)-4-(trifluoromethyl)isoindolin-1-one] | ≤ 100 | < 100 | 1.31 to 1.5 | 1.51 to 1.75 | > 7.5 | > 7.5 | > 1 | > 0.201 | 1.51 to 1.75 | > 7.5 | > 1 | > 0.201
CC(c1cc2c(c(C(F)(F)F)c1)CN(c1cccc([C@H]3C[C@H]3c3nncn3C)c1)C2=O)N1CC[C@H](F)C1 (stereo partly drawn) [Compound 466, 6-(1-((S)-3-fluoropyrrolidin-1-yl)ethyl)-2-(3-((1S,2R)-2-(4-methyl-4H-1,2,4-triazol-3-yl)cyclopropyl)phenyl)-4-(trifluoromethyl)isoindolin-1-one] | ≤ 100 | < 100 | 1.31 to 1.5 | 1.51 to 1.75 | 2.51 to 5 | > 7.5 | > 1 | > 0.201 | 1.51 to 1.75 | > 7.5 | > 1 | > 0.201
Cn1cnnc1[C@@H](F)[C@](C)(F)c1cccc(N2Cc3c(cc(C4CC4)cc3C(F)(F)F)C2=O)c1 (stereo in doubt) [Compound 482, 6-cyclopropyl-2-[3-[(1R,2R)-1,2-difluoro-1-(4-methyl-4H-1,2,4-triazol-3-yl)propan-2-yl]phenyl]-4-(trifluoromethyl)-2,3-dihydro-1H-isoindol-1-one] | – | 301 to 1000 | 1.01 to 1.3 | 1.01 to 1.3 | < 1 | 1.01 to 2.5 | 0.601 to 0.8 | 0.051 to 0.1 | 1.01 to 1.3 | 1.01 to 2.5 | 0.801 to 1 | 0.051 to 0.1
Cn1cnnc1C(F)[C@](C)(F)c1cccc(N2Cc3c(cccc3C(F)(F)F)C2=O)c1 (stereo in doubt) [Compound 478a, 2-(3-((1S,2R)-1,2-difluoro-1-(4-methyl-4H-1,2,4-triazol-3-yl)propan-2-yl)phenyl)-4-(trifluoromethyl)isoindolin-1-one] | – | 301 to 1000 | < 1 | < 1 | < 1 | < 1 | < 0.6 | < 0.05 | 1.01 to 1.3 | < 1 | 0.601 to 0.8 | 0.051 to 0.1
Cn1cnnc1C(F)(F)[C@@](C)(F)c1cccc(N2Cc3c(cc(CN4CC[C@H](F)C4)cc3C(F)(F)F)C2=O)c1 [Compound 449, 6-(((S)-3-fluoropyrrolidin-1-yl)methyl)-2-(3-((S)-1,1,2-trifluoro-1-(4-methyl-4H-1,2,4-triazol-3-yl)propan-2-yl)phenyl)-4-(trifluoromethyl)isoindolin-1-one] | – | 301 to 1000 | < 1 | < 1 | < 1 | < 1 | 0.601 to 0.8 | 0.051 to 0.1 | 1.01 to 1.3 | 1.01 to 2.5 | 0.801 to 1 | 0.051 to 0.1
C[C@@H](c1cccc(N2Cc3c(cccc3C(F)(F)F)C2=O)c1)[C@H](F)c1nncn1C (racemic) [Compound 473, 2-(3-((1S,2S and 1R,2R)-1-fluoro-1-(4-methyl-4H-1,2,4-triazol-3-yl)propan-2-yl)phenyl)-4-(trifluoromethyl)isoindolin-1-one] | – | 301 to 1000 | 1.01 to 1.3 | 1.01 to 1.3 | 1.01 to 2.5 | 1.01 to 2.5 | 0.601 to 0.8 | 0.051 to 0.1 | 1.01 to 1.3 | 2.51 to 5 | > 1 | 0.151 to 0.2
